# Data as given in the supplement of paper PMC11424490.
# Tests used:
# [1] = system: NCI-H2122; assay: combination cScore with sotorasib (Bliss gap around IC50) (%PoC); higher = stronger additive effect
# Experimental: (§1)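 Combination screen of 179 inhibitors with the KRAS G12C inhibitor sotorasib (AMG510) in dose matrices, CellTiter-Glo readout in NCI-H2122 (72 h), SW837 (144 h) and NCI-H358 cells. The cScore is the mean Bliss-independence gap (expected minus observed viability, in %PoC) over a 3x3 field around the IC50s of both drugs. Positive means additive, and >~10 is stated as clear additive.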
# [2] = system: SW837; assay: as above
# Experimental: as §1
Compound,combination cScore with sotorasib [1],combination cScore with sotorasib [2]
Nc1nc(Nc2ccc3c(c2)CC[C@@H](N2CCCC2)CC3)nn1-c1cc2c(nn1)-c1ccccc1CCC2 [Bemcentinib] + C=CC(=O)N1CCN(c2nc(=O)n(-c3c(C)ccnc3C(C)C)c3nc(-c4c(O)cccc4F)c(F)cc23)[C@@H](C)C1 [sotorasib],-5,4.27
C=C(c1ccc(C(=O)O)cc1)c1cc2c(cc1C)C(C)(C)CCC2(C)C [Bexarotene] + C=CC(=O)N1CCN(c2nc(=O)n(-c3c(C)ccnc3C(C)C)c3nc(-c4c(O)cccc4F)c(F)cc23)[C@@H](C)C1 [sotorasib],14.2,-2.93
CC(O)(CS(=O)(=O)c1ccc(F)cc1)C(=O)Nc1ccc(C#N)c(C(F)(F)F)c1 (stereo unspecified) [Bicalutamide] + C=CC(=O)N1CCN(c2nc(=O)n(-c3c(C)ccnc3C(C)C)c3nc(-c4c(O)cccc4F)c(F)cc23)[C@@H](C)C1 [sotorasib],3.68,-1.56
CO[C@H]1CC[C@H](n2c([C@@H]3CCCC(=O)N3c3ccc(F)c(F)c3)nc3cc(-c4c(C)noc4C)ccc32)CC1 [CCS1477] + C=CC(=O)N1CCN(c2nc(=O)n(-c3c(C)ccnc3C(C)C)c3nc(-c4c(O)cccc4F)c(F)cc23)[C@@H](C)C1 [sotorasib],13.8,11.8
O=C(O)CCCCC(CCSCc1ccccc1)SCc1ccccc1 (stereo unspecified) [CPI-613] + C=CC(=O)N1CCN(c2nc(=O)n(-c3c(C)ccnc3C(C)C)c3nc(-c4c(O)cccc4F)c(F)cc23)[C@@H](C)C1 [sotorasib],19,-5.35
CCCCCOC(=O)Nc1nc(=O)n([C@@H]2O[C@H](C)[C@@H](O)[C@H]2O)cc1F [Capecitabin] + C=CC(=O)N1CCN(c2nc(=O)n(-c3c(C)ccnc3C(C)C)c3nc(-c4c(O)cccc4F)c(F)cc23)[C@@H](C)C1 [sotorasib],4.4,1.19
C[C@H](CS)C(=O)N1CCC[C@H]1C(=O)O [Captopril] + C=CC(=O)N1CCN(c2nc(=O)n(-c3c(C)ccnc3C(C)C)c3nc(-c4c(O)cccc4F)c(F)cc23)[C@@H](C)C1 [sotorasib],1.43,-0.1
O=C(O)C1(C(=O)O)CCC1.[NH2-].[NH2-].[Pt+2] [Carboplatin] + C=CC(=O)N1CCN(c2nc(=O)n(-c3c(C)ccnc3C(C)C)c3nc(-c4c(O)cccc4F)c(F)cc23)[C@@H](C)C1 [sotorasib],11.6,-4.17
COc1cc2c(Oc3ccc4[nH]c(C)cc4c3F)ncnc2cc1OCCCN1CCCC1 [Cediranib] + C=CC(=O)N1CCN(c2nc(=O)n(-c3c(C)ccnc3C(C)C)c3nc(-c4c(O)cccc4F)c(F)cc23)[C@@H](C)C1 [sotorasib],0.01,1.55
N.N.[Cl][Pt][Cl] [Cisplatin] + C=CC(=O)N1CCN(c2nc(=O)n(-c3c(C)ccnc3C(C)C)c3nc(-c4c(O)cccc4F)c(F)cc23)[C@@H](C)C1 [sotorasib],4.22,-10.2
Nc1nc(Cl)nc2c1ncn2[C@@H]1O[C@H](CO)[C@@H](O)[C@@H]1F [Clofarabine] + C=CC(=O)N1CCN(c2nc(=O)n(-c3c(C)ccnc3C(C)C)c3nc(-c4c(O)cccc4F)c(F)cc23)[C@@H](C)C1 [sotorasib],1,3.33
O=C(c1ccc(F)c(F)c1Nc1ccc(I)cc1F)N1CC(O)([C@@H]2CCCCN2)C1 [Cobimetinib] + C=CC(=O)N1CCN(c2nc(=O)n(-c3c(C)ccnc3C(C)C)c3nc(-c4c(O)cccc4F)c(F)cc23)[C@@H](C)C1 [sotorasib],5.25,11.3
Nc1ccn([C@@H]2O[C@H](CO)[C@@H](O)[C@@H]2O)c(=O)n1 [Cytarabin] + C=CC(=O)N1CCN(c2nc(=O)n(-c3c(C)ccnc3C(C)C)c3nc(-c4c(O)cccc4F)c(F)cc23)[C@@H](C)C1 [sotorasib],5.6,8.17
CC(C)(C)c1nc(-c2cccc(NS(=O)(=O)c3c(F)cccc3F)c2F)c(-c2ccnc(N)n2)s1 [Dabrafenib] + C=CC(=O)N1CCN(c2nc(=O)n(-c3c(C)ccnc3C(C)C)c3nc(-c4c(O)cccc4F)c(F)cc23)[C@@H](C)C1 [sotorasib],13.3,-2.81
Nc1ncn([C@H]2C[C@H](O)[C@@H](CO)O2)c(=O)n1 [Decitabine] + C=CC(=O)N1CCN(c2nc(=O)n(-c3c(C)ccnc3C(C)C)c3nc(-c4c(O)cccc4F)c(F)cc23)[C@@H](C)C1 [sotorasib],1,0.84
C[C@@H]1C[C@H]2[C@@H]3CCC4=CC(=O)C=C[C@]4(C)[C@@]3(F)[C@@H](O)C[C@]2(C)[C@@]1(O)C(=O)CO [Dexamethasone] + C=CC(=O)N1CCN(c2nc(=O)n(-c3c(C)ccnc3C(C)C)c3nc(-c4c(O)cccc4F)c(F)cc23)[C@@H](C)C1 [sotorasib],-0.78,-13.1
CC(=O)O[C@@]12CO[C@@H]1C[C@H](O)[C@@]1(C)C(=O)[C@H](O)C3=C(C)[C@@H](OC(=O)[C@H](O)[C@@H](NC(=O)OC(C)(C)C)c4ccccc4)C[C@@](O)([C@@H](OC(=O)c4ccccc4)[C@H]21)C3(C)C [Docetaxel] + C=CC(=O)N1CCN(c2nc(=O)n(-c3c(C)ccnc3C(C)C)c3nc(-c4c(O)cccc4F)c(F)cc23)[C@@H](C)C1 [sotorasib],1.66,3.98
COc1cccc2c1C(=O)c1c(O)c3c(c(O)c1C2=O)C[C@@](O)(C(=O)CO)C[C@@H]3O[C@H]1C[C@H](N)[C@H](O)[C@H](C)O1 [Doxorubicin] + C=CC(=O)N1CCN(c2nc(=O)n(-c3c(C)ccnc3C(C)C)c3nc(-c4c(O)cccc4F)c(F)cc23)[C@@H](C)C1 [sotorasib],11.1,11
CN(NC(=O)CC(=O)NN(C)C(=S)c1ccccc1)C(=S)c1ccccc1 [Elesclomol] + C=CC(=O)N1CCN(c2nc(=O)n(-c3c(C)ccnc3C(C)C)c3nc(-c4c(O)cccc4F)c(F)cc23)[C@@H](C)C1 [sotorasib],13.6,13.4
CNC(=O)c1ccc(N2C(=S)N(c3ccc(C#N)c(C(F)(F)F)c3)C(=O)C2(C)C)cc1F [Enzalutamide] + C=CC(=O)N1CCN(c2nc(=O)n(-c3c(C)ccnc3C(C)C)c3nc(-c4c(O)cccc4F)c(F)cc23)[C@@H](C)C1 [sotorasib],6.62,5.64
COc1cc([C@@H]2c3cc4c(cc3[C@@H](O[C@@H]3O[C@@H]5CO[C@@H](C)O[C@H]5[C@H](O)[C@H]3O)[C@H]3COC(=O)[C@H]23)OCO4)cc(OC)c1O [Etoposide] + C=CC(=O)N1CCN(c2nc(=O)n(-c3c(C)ccnc3C(C)C)c3nc(-c4c(O)cccc4F)c(F)cc23)[C@@H](C)C1 [sotorasib],14.1,4.54
CO[C@H]1C[C@@H]2CC[C@@H](C)[C@@](O)(O2)C(=O)C(=O)N2CCCC[C@H]2C(=O)O[C@H]([C@H](C)C[C@@H]2CC[C@@H](OCCO)[C@H](OC)C2)CC(=O)[C@H](C)/C=C(\C)[C@@H](O)[C@@H](OC)C(=O)[C@H](C)C[C@H](C)/C=C/C=C/C=C/1C [Everolimus] + C=CC(=O)N1CCN(c2nc(=O)n(-c3c(C)ccnc3C(C)C)c3nc(-c4c(O)cccc4F)c(F)cc23)[C@@H](C)C1 [sotorasib],4.54,-4.84
CN1CC[C@H](c2c(O)cc(O)c3c(=O)cc(-c4ccccc4Cl)oc23)[C@H](O)C1 [Flavopiridol] + C=CC(=O)N1CCN(c2nc(=O)n(-c3c(C)ccnc3C(C)C)c3nc(-c4c(O)cccc4F)c(F)cc23)[C@@H](C)C1 [sotorasib],6.54,1.46
Nc1nc(F)nc2c1ncn2[C@@H]1O[C@H](CO)[C@@H](O)[C@@H]1O [Fludarabine] + C=CC(=O)N1CCN(c2nc(=O)n(-c3c(C)ccnc3C(C)C)c3nc(-c4c(O)cccc4F)c(F)cc23)[C@@H](C)C1 [sotorasib],9.97,-1.86
O=c1[nH]cc(F)c(=O)[nH]1 [Fluorouracil (5-FU)] + C=CC(=O)N1CCN(c2nc(=O)n(-c3c(C)ccnc3C(C)C)c3nc(-c4c(O)cccc4F)c(F)cc23)[C@@H](C)C1 [sotorasib],2.26,15.4
C[C@]12CC[C@@H]3c4ccc(O)cc4C[C@@H](CCCCCCCCC[S+]([O-])CCCC(F)(F)C(F)(F)F)[C@H]3[C@@H]1CC[C@@H]2O (stereo partly specified) [Fulvestrant] + C=CC(=O)N1CCN(c2nc(=O)n(-c3c(C)ccnc3C(C)C)c3nc(-c4c(O)cccc4F)c(F)cc23)[C@@H](C)C1 [sotorasib],8.41,1.95
CN(C)c1ccccc1CN1CCCN(Cc2ccccc2N(C)C)C1c1ccncc1 [GANT61] + C=CC(=O)N1CCN(c2nc(=O)n(-c3c(C)ccnc3C(C)C)c3nc(-c4c(O)cccc4F)c(F)cc23)[C@@H](C)C1 [sotorasib],-3.17,-1.32
N#CN=C(NCCCCCCOc1ccc(Cl)cc1)Nc1ccncc1 [GMX1778] + C=CC(=O)N1CCN(c2nc(=O)n(-c3c(C)ccnc3C(C)C)c3nc(-c4c(O)cccc4F)c(F)cc23)[C@@H](C)C1 [sotorasib],-13.8,7.36
